Assays:
[1] = molecular target: T1, VP16-PYLcs and Gal4 DBD-ABIcs (Arabidopsis thaliana, UniProt Q8VZS8); experiment: ABA-induced luciferase activation (ABA-activator cassette + UAS-luciferase reporter); format: cell-based
T1 construct: HA (from the reverse primer); expressed in transfected cells; host or cells: CHO; also HEK 293/293T, NIH3T3, COS7, B35, Jurkat, E14, TC1, MEF
T1 sequence (Q8VZS8 33-209): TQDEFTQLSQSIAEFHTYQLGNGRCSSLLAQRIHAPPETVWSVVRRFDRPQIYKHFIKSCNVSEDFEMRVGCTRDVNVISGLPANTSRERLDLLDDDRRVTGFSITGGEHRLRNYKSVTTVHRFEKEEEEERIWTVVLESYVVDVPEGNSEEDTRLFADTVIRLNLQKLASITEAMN
T1 sequence (P49597 126-423 partner): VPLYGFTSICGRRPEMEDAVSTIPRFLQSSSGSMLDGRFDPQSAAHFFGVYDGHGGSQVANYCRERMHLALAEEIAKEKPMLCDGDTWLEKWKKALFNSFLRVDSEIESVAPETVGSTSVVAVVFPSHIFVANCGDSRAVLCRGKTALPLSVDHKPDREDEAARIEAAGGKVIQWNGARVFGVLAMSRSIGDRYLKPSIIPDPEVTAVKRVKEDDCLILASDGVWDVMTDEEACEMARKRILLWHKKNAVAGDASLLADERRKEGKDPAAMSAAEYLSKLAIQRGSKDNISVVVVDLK
Text: Activation construct: A fragment of PYL1 (one of PYR/PYL/RCAR members) (aa 33-209, also referred to as “PYLcs”) was linked to a transcriptional activation domain and a fragment of ABI1 (one of PP2C members) (aa 126-423, SEQ ID NO:2, also referred to as “ABIcs”) was linked to a DNA binding domain using recombinant DNA methods. In the constructs illustrated in FIG. 1 and FIG. 2, PYL1 (“PYLcs”) is fused to the VP16 activation domain and ABI1 (“ABIcs”) is fused to the Gal4 DNA binding domain. These two regulatory elements are linked by IRES and driven by the SV40 early promoter. Reporter constructs: Full length Luciferase is driven by Fos gene minimal promoter with 5 copies of Gal4 DNA binding sites immediately upstream of Fos promoter. GFP reporter is driven by IL2 minimal promoter with 5×Gal4 DNA binding sites upstream.
CHO, HEK 293T, NIH 3T3, B35, MEF, and COS7 cells were cultured in Dulbecco's modified Eagle's medium (DMEM) (Gibco) with 10% FBS (Omega Scientific), 1× glutamate (Gibco), and 1× penicillin/streptomycin (Pen/Strep; Gibco). Jurkat cells were cultured in RPMI 1640 (Gibco) with 10% FBS, 1× glutamate, and 1×Pen/Strep. E14 and TC1 were cultured in Knockout DMEM (Gibco) with 7.5% ES FBS (Applied Stem Cell), 7.5% knockout SR (Gibco), 1× Hepes (Gibco), 1× sodium pyruvate (Gibco), 1×MEM NEAA (nonessential amino acids; Gibco), 1×2-mercaptoethanol (Gibco), 1× glutamate, 1×Pen/Strep, and leukemia inhibitory factor (LIF) on gelatin (Millipore)-coated plates. Cells (50,000 to 200,000) were plated in a well of a 24-well plate the day before transfection. An amount of 0.1 to 0.5 μg of DNA of each construct was mixed with 50× (v/w) Opti-MEM (Gibco), and then 3× (v/w) FuGENE HD (Roche) was added and thoroughly mixed. After incubation at room temperature for 20 min, the mixture was added to the cells and cultured for 24 to 48 hours before experiments were performed.
Cells in 24-well plates were lysed with 100 μl of 1× Passive Lysis Buffer (Promega) at room temperature for 10 min on a shaker (˜80 rpm). Cell lysates were then spun down (16,000 g) and 10 μl of supernatant was used for luciferase assay. Luciferase substrate solution [100 μl; 5 mg of D-luciferin (BD Biosciences) and 7 mg of coenzyme A (Sigma) in 33 ml of luciferase reading buffer: 20 mM tricine, 1.07 mM (MgCO3)4Mg(OH)2.5H2O, 2.67 mM MgSO4, 0.1 mM EDTA, 33.3 mM dithiothreitol (DTT), and 0.53 mM ATP in water] was added to the cell lysates, and signal was read with a 3-s delay and 1-s integration with a Turner BioSystem Modulus microplate reader. Obtained data were analyzed by Prism 5 (GraphPad Software).
The inducible gene activation module illustrated in FIG. 1 was introduced into a mammalian cell line (CHO, Chinese Hamster Ovary cells) along with a luciferase reporter to test the inducibility of gene activation by ABA, as shown in FIG. 2.
To assay the ability of ABA to induce effective proximity of chimeric proteins, the ability of ABA to reconstitute protein domains was tested. In this strategy, ABA was used to induce the proximity of the yeast Gal4 DNA binding domain (Gal4 DBD) to the herpes simplex virus VP16 transactivation domain (VP16AD) (FIG. 2B). […] The VP16AD, when tethered to DNA binding domains, strongly activates transcription but cannot act without proximity to a DNA binding domain. To test gene activation by ABA-induced proximity of Gal4 DBD and VP16AD, an ABA-activator cassette was constructed by fusing Gal4 DBD to the domain of ABI1 that interacts with PYL1 (the complementary surface of ABI1, or “ABIcs”) and VP16AD to the domain of PYL1 that interacts with ABI1 (the complementary surface of PYL1, or “PYLcs”) (FIG. 2B).
The ABA-induced domain reconstitution leading to induction of gene expression was compared to a similar system in Chinese hamster ovary (CHO) cells controlled by Rap, which has wild-type FKBP12 and Frb replacing ABIcs and PYLcs, respectively, in the chimeric proteins. […]

[2] = subchronic toxicity studies; cited from earlier work
[3] = E14 and CHO cells (FIG. 12D, FIG. 19)

CC1=CC(=O)CC(C)(C)C1(O)/C=C/C(C)=C/C(=O)O (stereo not drawn) [ABA, abscisic acid]
gene activation in different cell types ([1]; 100 μM, 24 hours, CHO, NIH3T3, HEK293T, COS7, B35, Jurkat, E14, TC1, MEF): observed in all cell types tested | change in protein activity relative to untreated cells (factor) ([1]; ABA system): > 1000 | specificity of luciferase induction (ABA vs Rap protein pairs) ([1]; CHO and NIH 3T3 cells, 24 hours): only induced by matching small-molecule and dimerizing protein pairs | relative activation change compared with Rap ([1]; CHO cells): comparable | reversibility of luciferase transcription upon removal ([1]; CHO cells, 100 μM for 24 hours then ABA-free media): fully reversible | dose response of transactivation ([1]; CHO cells, 24 hours): large linear range | time for gene activation to reverse to background after withdrawal ([1]; CHO cells, induced 24 hours, washed five times with fresh medium): ≤ 24 h | time at which activation of luciferase was first observed after addition [1, 3]: 1.5 h | time to reach maximum luciferase activation [1, 3]: ≤ 24 h | relative activation change compared with Rap ([1]; E14 cells): much higher | luciferase production induced ([1]; murine embryonic stem (ES) cells, NIH 3T3 and HEK 293T cells, 24 hours): more than three orders of magnitude | no observable adverse effect level (NOAEL) [2]: 20,000 mg/kg per day
